“Also recorded” adds a separate entry of the source.
What was measured:
mTOR (S2448) = assay: RPA of fixed versus snap frozen samples; conditions: cellular equivalents printed on reverse phase protein microarrays, FIG. 7
Source text: We compared phosphoproteins from real time, room temperature shipping conditions in a methanol:water or ethanol:water fixative to samples that were snap frozen.

AKT ser473 = assay: RPA phosphoprotein level after 24 h storage of tumor needle samples in preservatives; conditions: 24 h in preservative at 4° C., relative normalized RPA intensity
Method: (§1) The RPA format, originated by the present inventors and collaborators (see, e.g., Paweletz et al. (2001) Oncogene 20, 1981-1989), immobilizes an individual test sample in a miniature dilution curve such that an array contains hundreds of different patient samples, treatments, or time points. In the RPA format, each array is incubated with one detection protein (e.g. anti-peptide antibody), and a single analyte endpoint is measured and directly compared across multiple samples. Briefly, the lysates are printed on glass backed nitrocellulose array slides (FAST Slides Whatman, Florham Park, N.J. or ONCYTE slides Grace BioLabs, Bend, Oreg.) using a robotic array printing device (GMS 417 arrayer (Affymetrix, Santa Clara, Calif. or Aushon 2470, Aushon Biosystems, Burlington, Mass. equipped with 125-500 μm pins). Each lysate is printed in a dilution curve representing neat, 1:2, 1:4, 1:8, 1:16 and negative control dilutions. The slides are stored with desiccant (Drierite, W. A. Hammond, Xenia, Ohio) at −20° C. prior to immunostaining.
(§2) Immunostaining is performed on an automated slide stainer per manufacturer's instructions (Autostainer CSA kit, Dako, Carpinteria, Calif.). Each slide is incubated with a single primary antibody at room temperature for 30 minutes. Polyclonal primary antibodies can be, e.g.: GSK3α/β Tyr279/216 (Invitrogen-Biosource, Carlsbad, Calif.), BCL-2, HIF-1α (BD, Franklin Lakes, N.J.), 4EBP1, FKHR ser256, eIF4E, eIF4E ser209, eIF4G, eIF4G ser1108, IGFR-β, IRS-1, IRS-2, IRS-1 ser612, SGK, Bak, Bax, BAD, BAD ser112, BAD ser136, BAD ser155, B-Raf, mTOR, mTOR ser2448, p70S6 Thr389, p70S6 kinase, p70S6 ser371, S6 kinase ser240/244, Akt, Akt ser473, Akt Thr308, 4EBP1 ser65, 4EBP1 ser70, and 4EBP1 Thr37/46 (Cell Signaling Technology, Danvers, Mass.). A negative control slide is incubated with antibody diluent. Secondary antibody can be goat anti-rabbit IgG H+L (1:5000) (Vector Labs, Burlingame, Calif.).
(§3) Each array is scanned, spot intensity analyzed, data normalized, and a standardized, single data value can be generated for each sample on the array (Image Quant v5.2, GE Healthcare, Piscataway, N.J.) or MicroVigene v2.8, Vigene Tech, Billerica, Mass.). Spot intensity is integrated over a fixed area. Local area background intensity is calculated for each spot with the unprinted adjacent slide background. […] The Ward method for two-way hierarchical clustering can be performed using JMP v5.0 (SAS Institute, Cary N.C.). Wilcoxon two-sample rank sum test can be used to compare values between two groups. P values less than 0.05 are considered significant. When one cannot assume a normal distribution of the variables, non-parametric methods are used. Kaplan-Meier (log-rank) survival estimates for univariate survival analysis can be used.
(§4) Briefly, tumor tissues from gastrinoma/liver, mesothelioma and parathyroid tumors were sampled by five needle passes and placed into the preservatives listed in Table 5. […] Immediate lysis and denaturation of the cellular proteins were accomplished by standard Pierce Tissue Protein Extraction Buffer (T-PER), with additional SDS, denaturing reagents, and detergents. The cell samples were stored 24 h in the listed preservatives at 4° C. and then the listed phosphoprotein endpoints were measured. […] Some values dropped to zero while others are markedly elevated compared to the freshly lysed cell baseline. […] They were unable to stabilize the phosphorylation state of key signal proteins over a storage period of 24 hours, which is a typical time delay for cell or tissue shipment. Numbers in the table are relative normalized intensity values using the RPA technology described herein.

IKappa-Ba ser32 = assay: as above; conditions: 24 h in preservative at 4° C., relative normalized RPA intensity
Method: as §1, §2, §3, §4

CC3 Asp175 = assay: as above; conditions: 24 h in preservative at 4° C., relative normalized RPA intensity
Method: as §1, §2, §3, §4

IRS-1 ser612 = assay: as above; conditions: 24 h in preservative at 4° C., relative normalized RPA intensity
Method: as §1, §2, §3, §4

ERK T202/Y204 = assay: as above; conditions: 24 h in preservative at 4° C., relative normalized RPA intensity
Method: as §1, §2, §3, §4

CREB ser133 = assay: as above; conditions: 24 h in preservative at 4° C., relative normalized RPA intensity
Method: as §1, §2, §3, §4

EGFR Y1148 = assay: as above; conditions: 24 h in preservative at 4° C., relative normalized RPA intensity
Method: as §1, §2, §3, §4

GSK3ab ser21/9 = assay: as above; conditions: 24 h in preservative at 4° C., relative normalized RPA intensity
Method: as §1, §2, §3, §4

p38 T180/182 = assay: as above; conditions: 24 h in preservative at 4° C., relative normalized RPA intensity
Method: as §1, §2, §3, §4

AKT Thr308 = assay: as above; conditions: 24 h in preservative at 4° C., relative normalized RPA intensity
Method: as §1, §2, §3, §4

phosphoproteins = assay: Overall phosphoprotein preservation of FNA / tumor needle samples stored 24 h at 4° C.; conditions: compared to directly lysed cell baseline
Method: Fine Needle Aspirate (FNA) samples were stored for 24 hours at 4° C. in each of the chemicals/chemical solutions. The cellular samples were further processed for reverse phase protein microarray analysis. […] Each set of 4 horizontal spots by 2 vertical spots represent an original and its replicate sample, printed on the array in two-fold dilutions, for each FNA sample. The dilution series represents undiluted, 1:2, 1:4 and 1:8 dilutions of each sample.
A variety of types of tumor tissues were incubated in a series of conventional preservatives to determine if the preservatives were able to stabilize selected phosphoproteins.

[1] = system: cultured cell line (A549); assay: Phosphorylation over time with phosphatase inhibitor in cell culture model; format: cell-based
Method: (§5) The phosphorylation rises rapidly to a high level in less than 40 minutes, which is followed by cell death.
(§6) These continuing metabolic processes present problems for the preservation of phosphoproteins in a sample. For example, the inventors have discovered that the addition of a phosphatase inhibitor alone, designed to block the removal of protein phosphate groups by endogenous phosphatases, can cause unchecked and highly abnormal upward accumulation of abnormal levels of phosphoproteins, reaching a lethal level.

EGFR Y1173 = assay: as above; format: cell-based; conditions: living cells exposed to phosphatase inhibitor, FIG. 10A
Method: as §5, §6

[2] = Gastrinoma/liver tumor, Lysis Buffer = frozen immediately after lysis
[3] = Parathyroid tumor, Lysis Buffer = frozen immediately after lysis

In the case of `CO` [20-50% methanol in water, methanol], the “level of mTOR (S2448) phosphorylation, fixed versus snap frozen” value (mTOR (S2448)) is reported as “equivalence”.

In the case of `CCO` [70% ethanol, ethanol], the “AKT ser473 Normalized data” value (AKT ser473; [2]) is reported as 0.00, the “AKT ser473 Normalized data” value (AKT ser473; Mesothelioma) is reported as 10.94 and the “AKT ser473 Normalized data” value (AKT ser473; [3]) is reported as 7.18. The “IKappa-Ba ser32 Normalized data” value (IKappa-Ba ser32; [2]) was 28.36, the “IKappa-Ba ser32 Normalized data” value (IKappa-Ba ser32; Mesothelioma) was 25.09 and the “IKappa-Ba ser32 Normalized data” value (IKappa-Ba ser32; [3]) was 32.97. For the same molecule, the “CC3 Asp175 Normalized data” value (CC3 Asp175; [2]) was 5.09, the “CC3 Asp175 Normalized data” value (CC3 Asp175; Mesothelioma) was 15.92 and the “CC3 Asp175 Normalized data” value (CC3 Asp175; [3]) was 19.16. The “IRS-1 ser612 Normalized data” value (IRS-1 ser612; [2]) was 19.74, the “IRS-1 ser612 Normalized data” value (IRS-1 ser612; Mesothelioma) was 12.16 and the “IRS-1 ser612 Normalized data” value (IRS-1 ser612; [3]) was 15.92. The “ERK T202/Y204 Normalized data” value (ERK T202/Y204; [2]) was 11.51, the “ERK T202/Y204 Normalized data” value (ERK T202/Y204; Mesothelioma) was 30.74 and the “ERK T202/Y204 Normalized data” value (ERK T202/Y204; [3]) was 37.27. For the same molecule, the “CREBser133 Normalized data” value (CREB ser133; [2]) was 103.07, the “CREBser133 Normalized data” value (CREB ser133; Mesothelioma) was 53.05 and the “CREBser133 Normalized data” value (CREB ser133; [3]) was 67.91. For the same molecule, the “EGFR Y1148 Normalized data” value (EGFR Y1148; [2]) was 39.95, the “EGFR Y1148 Normalized data” value (EGFR Y1148; Mesothelioma) was 30.71 and the “EGFR Y1148 Normalized data” value (EGFR Y1148; [3]) was 47.58. For the same molecule, the “GSK3ab ser21/9 Normalized data” value (GSK3ab ser21/9; [2]) was 19.01, the “GSK3ab ser21/9 Normalized data” value (GSK3ab ser21/9; Mesothelioma) was 31.87 and the “GSK3ab ser21/9 Normalized data” value (GSK3ab ser21/9; [3]) was 60.83. For the same molecule, the “p38 T180/182 Normalized data” value (p38 T180/182; [2]) was 27.50, the “p38 T180/182 Normalized data” value (p38 T180/182; Mesothelioma) was 49.07 and the “p38 T180/182 Normalized data” value (p38 T180/182; [3]) was 45.63. For the same molecule, the “AKT Thr308 Normalized data” value (AKT Thr308; [2]) was 0.00, the “AKT Thr308 Normalized data” value (AKT Thr308; Mesothelioma) was 15.15 and the “AKT Thr308 Normalized data” value (AKT Thr308; [3]) was 18.57. For the same molecule, the “preservation of phosphoproteins overall” value (phosphoproteins) was “significant, reproducible degradation of the phospho endpoints”.

For pervanadate, the “phosphorylation of phospho-endpoints over time” value ([1]; A549 cells, FIG. 10) was “hyperphosphorylation over time; also recorded: large surge of phosphorylation”, the “fate of cells after phosphorylation surge” value ([1]; living cells exposed to phosphatase inhibitor, FIG. 10A) was “cell death” and the “time for EGFR Y1173 phosphorylation to rise to a high level” value (EGFR Y1173) was “less than 40 minutes”.
